From patent US7816409B2, “Stable pharmaceutical composition of fluoroether compound for anesthetic use method for stabilizing a fluoroether compound, use of stabilizer agent for precluding the degradation of a fluoroether compound” (Cristalia Productos Quimicos Farmaceuticos LTDA, priority 2003, dated 2010)

Key:
[1] = Limit of fluoride in sevoflurane after stress with alumina; assay type: physicochemical
Protocol: (§1) In this study alumina was employed in a final concentration of 1 mg per mL of sevoflurane.
Another important factor observed in the present study is the quantity of fluoride in the sample submitted to stress.
(§2) Alumina was employed in a final concentration of 1 mg per mL of sevoflurane.

[2] = Chromatographic purity and impurities of sevoflurane after stress with alumina (Pharmacopeial Forum USP specifications); assay type: physicochemical; conditions: for degradation of sevoflurane by alumina: Example 5, 260 ppm stabilizer
Protocol: as §1, §2

[3] = Saturation level / solubility of stabilizer in sevoflurane
Text: The stabilizer agent for the fluoroether compound, and most particularly for the sevoflurane, is employed in concentration ranging from 0.001% in weight in relation to the weight of sevoflurane until its level of saturation in the sevoflurane, that is, the maximum concentration in which it keeps soluble in the sevoflurane. The amount of stabilizer agent to achieve its saturation depends on the stabilizer and temperature, and can be high due to the solubility profile among these substances.
Among the appropriate polyalcohols to the stabilization of the fluoroether compound sevoflurane, propylene glycol, polyethylene glycol, hexylene glycol and 1,3-butileneglycol are chosen. […] As cited before, the amount of the stabilizer agent will range from 0.001% in weight until its saturation level in sevoflurane. […] Therefore, in a general way, the polyalcohols are preferably employed in amounts ranging from 0.001% to 5.0% in weight in relation to the weight of sevoflurane.

[4] = Stress degradation of sevoflurane with or without alumina, gas chromatography with toluene internal standard; assay type: physicochemical
Protocol: In the following examples, all analyses by gas chromatography were carried out by adding 2 μL of toluene (internal standard) in 10 mL of sample of sevoflurane in study. The analysis was done in duplicates and for each chromatogram obtained was calculated the ratio of the area of each impurity/area of toluene.
In two type III glass bottle with capacity of 100 mL, was added 20 mL of anhydrous sevoflurane and in one of the bottles was added 20 mg of alumina totalizing 1.0 mg of Al2O3 per mL of sevoflurane. Both bottles were closed with a stopper and screw metallic cap and heated in a stove at 60° C. for 22 hours. After that period, the samples were analyzed in duplicates by gas chromatography using the internal standard addition method (toluene). […] The degradation products of sevoflurane monitored by gas chromatography, HFIP, Acetal, 2, 5, 7 and 8, are present in high amounts in the samples of sevoflurane containing alumina after heating, as presented in FIG. 4.
The samples were prepared and placed in type III glass bottle and the bottles were closed with stopper and screw metallic cap.
The samples were submitted to two stress conditions by heating in stove at 60° C. for a cycle of 22 hours and other of 72 hours.
The sample was prepared to contain 0, 50, 200, 600, 1000 and 1400 ppm of the stabilizer agent. […] The study comprises put sevoflurane in contact with an acid substance, submits the samples to a stress by heating at 60° C. for 22 hours and, by comparison evaluates the chromatographic purity of sevoflurane after stress. The activated alumina was employed as acid substance in a constant quantity of 1 mg per mL of sevoflurane.
In type III glass bottle with capacity for 100 mL was transferred 20 mL of test sevoflurane containing determined quantities of the stabilizer agent (0, 50, 200, 600, 1000 and 1400 ppm) and 20 mg of alumina. The bottles were immediately closed with a stopper and a screw metallic cap. These bottles were heated in a stove at 60° C. for 22 hours. After the stress the samples were analyzed in duplicate by gas chromatography using the internal standard addition method (toluene). In parallel, studies were done with the quantity determined of the stabilizer (0, 50, 200, 600, 1000 and 1400 ppm) without alumina.
Table 2 resumes the tests realized with the agents propylene glycol and menthol proposed for the stabilization of sevoflurane against the degradation by alumina and the results for total impurity and for the single impurity HFIP obtained with and without alumina after stress at 60° C. for 22 hours. The total impurity is the sum of the ratio between the area for each impurity and the area of the internal standard (toluene) and HFIP is the ratio between the area of HFIP and the area of toluene obtained in the chromatograms.

[5] = Table 6, initial analysis of anhydrous sevoflurane before stress
[6] = Table 4, initial analysis of anhydrous sevoflurane before stress
[7] = Table 5, sevoflurane with 260 ppm stabilizer, alumina 1 mg per mL, 60° C. for 22 hours
[8] = anhydrous sevoflurane, stabilizer 0 ppm, 60° C. for 22 hours, 0 mg of Al2O3
[9] = anhydrous sevoflurane, stabilizer 0 ppm, 60° C. for 22 hours, 20 mg of Al2O3
[10] = anhydrous sevoflurane, stabilizer 50 ppm, 60° C. for 22 hours, 0 mg of Al2O3
[11] = anhydrous sevoflurane, stabilizer 50 ppm, 60° C. for 22 hours, 20 mg of Al2O3
[12] = anhydrous sevoflurane, stabilizer 200 ppm, 60° C. for 22 hours, 0 mg of Al2O3
[13] = anhydrous sevoflurane, stabilizer 200 ppm, 60° C. for 22 hours, 20 mg of Al2O3
[14] = anhydrous sevoflurane, stabilizer 600 ppm, 60° C. for 22 hours, 0 mg of Al2O3
[15] = anhydrous sevoflurane, stabilizer 600 ppm, 60° C. for 22 hours, 20 mg of Al2O3
[16] = anhydrous sevoflurane, stabilizer 1000 ppm, 60° C. for 22 hours, 0 mg of Al2O3
[17] = anhydrous sevoflurane, stabilizer 1000 ppm, 60° C. for 22 hours, 20 mg of Al2O3
[18] = anhydrous sevoflurane, stabilizer 1400 ppm, 60° C. for 22 hours, 0 mg of Al2O3
[19] = anhydrous sevoflurane, stabilizer 1400 ppm, 60° C. for 22 hours, 20 mg of Al2O3
[20] = sevoflurane, stabilizer 50 ppm, stress at 60° C. for 12 hours, 0 mg of Al2O3
[21] = sevoflurane, stabilizer 50 ppm, stress at 60° C. for 12 hours, 20 mg of Al2O3
[22] = alumina 1 mg per mL, 60° C. for 22 hours
[23] = Table 4, sevoflurane with 260 ppm stabilizer, alumina 1 mg per mL, 60° C. for 22 hours
[24] = Table 6, sevoflurane with water 260 ppm or PG + water 260:260 ppm, alumina 1 mg per mL, 60° C. for 22 hours

Molecule: FCOC(C(F)(F)F)C(F)(F)F [Anhydrous Sevoflurane, fluoromethyl 2,2,2-trifluoro-1-(trifluoromethyl)ethyl ether]
- Limit of fluoride ([1]; Table 5, initial analysis of anhydrous sevoflurane before stress): 0.050 µg/mL
- Limit of fluoride [1, 5]: 0.072 µg/mL
- Compound A [2, 6]: 11.2 µg/g
- Purity [2, 6]: 99.9798%
- Single impurity [2, 6]: 63.7 µg/g
- Total Impurity [2, 6]: 201.8 µg/g
- Purity [2, 5]: 99.9907%
- Single impurity [2, 5]: 42.1 µg/g
- Total impurities [2, 5]: 93.0 µg/g

Molecule: CC(O)CO (centres unmarked) [Propylene glycol, 1,2-propanediol]
- Limit of fluoride [1, 7]: 0.051 µg/mL
- saturation level in sevoflurane [3]: around 2.5%
- HFIP (average ratio area of HFIP/area of toluene) [4, 8]: 0.0491
- Total Impurity (average sum of ratios area of each impurity/area of toluene) [4, 8]: 0.3304
- HFIP (average ratio area of HFIP/area of toluene) [4, 9]: 0.6680
- Total Impurity (average sum of ratios area of each impurity/area of toluene) [4, 9]: 31.65
- HFIP (average ratio area of HFIP/area of toluene) [4, 10]: 0
- Total Impurity (average sum of ratios area of each impurity/area of toluene) [4, 10]: 0.3293
- HFIP (average ratio area of HFIP/area of toluene) [4, 11]: 0.05996
- Total Impurity (average sum of ratios area of each impurity/area of toluene) [4, 11]: 0.3925
- HFIP (average ratio area of HFIP/area of toluene) [4, 12]: 0.04474
- Total Impurity (average sum of ratios area of each impurity/area of toluene) [4, 12]: 0.3546
- HFIP (average ratio area of HFIP/area of toluene) [4, 13]: 0.04072
- Total Impurity (average sum of ratios area of each impurity/area of toluene) [4, 13]: 0.2823
- HFIP (average ratio area of HFIP/area of toluene) [4, 14]: 0.04694
- Total Impurity (average sum of ratios area of each impurity/area of toluene) [4, 14]: 0.2925
- HFIP (average ratio area of HFIP/area of toluene) [4, 15]: 0.04603
- Total Impurity (average sum of ratios area of each impurity/area of toluene) [4, 15]: 0.3158
- HFIP (average ratio area of HFIP/area of toluene) [4, 16]: 0.04038
- Total Impurity (average sum of ratios area of each impurity/area of toluene) [4, 16]: 0.3800
- HFIP (average ratio area of HFIP/area of toluene) [4, 17]: 0.04353
- Total Impurity (average sum of ratios area of each impurity/area of toluene) [4, 17]: 0.3189
- HFIP (average ratio area of HFIP/area of toluene) [4, 18]: 0.04159
- Total Impurity (average sum of ratios area of each impurity/area of toluene) [4, 18]: 0.3061
- HFIP (average ratio area of HFIP/area of toluene) [4, 19]: 0.04236
- Total Impurity (average sum of ratios area of each impurity/area of toluene) [4, 19]: 0.3235
- HFIP (average ratio area of HFIP/area of toluene) [4, 20]: 0.00338
- Total Impurity (average sum of ratios area of each impurity/area of toluene) [4, 20]: 0.3236
- HFIP (average ratio area of HFIP/area of toluene) [4, 21]: 0.02051
- Total Impurity (average sum of ratios area of each impurity/area of toluene) [4, 21]: 0.3963
- degradation of sevoflurane by alumina [2, 22]: didn't show any degradation
- Compound A [2, 23]: 11.3 µg/g
- Purity [2, 23]: 99.9774%
- Single impurity [2, 23]: 61.7 µg/g
- Total Impurity [2, 23]: 226.3 µg/g

Molecule: PEG 400
- solubility in sevoflurane [3]: freely soluble

Molecule: O [Water]
- Limit of fluoride [1, 7]: 16.950 µg/mL
- Limit of fluoride [1, 24]: 15.340 µg/mL
- water content from which degradation of sevoflurane by alumina is inhibited ([4]; Example 2, alumina 1 mg per mL, 60° C.): ≥ 600 ppm
- degradation of sevoflurane by alumina ([4]; Example 4, 50 ppm stabilizer, alumina 1 mg per mL): incapable to completely inhibit
- increase of impurity HFIP value in relation to the sample without alumina ([4]; sevoflurane containing water, with alumina): about 10 times
- degradation of sevoflurane by alumina [2, 22]: didn't inhibit the degradation
- Compound A [2, 23]: 11.8 µg/g
- Purity [2, 23]: 99.8944%
- Single impurity [2, 23]: 403 µg/g
- Total Impurity [2, 23]: 1056.1 µg/g
- Purity [2, 24]: 99.8899%
- Single impurity [2, 24]: 422.8 µg/g
- Total impurities [2, 24]: 1101.3 µg/g

Molecule: CC1CCC(C(C)C)C(O)C1 (stereo not drawn) [MENTHOL, (1 alpha, 2 beta, 5 alpha)-5-methyl-2-(1-methylethyl)cyclohexanol]
- saturation level in sevoflurane [3]: about 6.8%
- HFIP (average ratio area of HFIP/area of toluene) [4, 8]: 0.0408
- Total Impurity (average sum of ratios area of each impurity/area of toluene) [4, 8]: 0.3083
- HFIP (average ratio area of HFIP/area of toluene) [4, 9]: 0.8914
- Total Impurity (average sum of ratios area of each impurity/area of toluene) [4, 9]: 37.5478
- HFIP (average ratio area of HFIP/area of toluene) [4, 10]: 0.04541
- Total Impurity (average sum of ratios area of each impurity/area of toluene) [4, 10]: 0.3174
- HFIP (average ratio area of HFIP/area of toluene) [4, 11]: 0.6402
- Total Impurity (average sum of ratios area of each impurity/area of toluene) [4, 11]: 1.0412
- HFIP (average ratio area of HFIP/area of toluene) [4, 12]: 0.04228
- Total Impurity (average sum of ratios area of each impurity/area of toluene) [4, 12]: 0.2918
- HFIP (average ratio area of HFIP/area of toluene) [4, 13]: 0.5880
- Total Impurity (average sum of ratios area of each impurity/area of toluene) [4, 13]: 1.0773
- HFIP (average ratio area of HFIP/area of toluene) [4, 14]: 0.04445
- Total Impurity (average sum of ratios area of each impurity/area of toluene) [4, 14]: 0.3319
- HFIP (average ratio area of HFIP/area of toluene) [4, 15]: 0.4426
- Total Impurity (average sum of ratios area of each impurity/area of toluene) [4, 15]: 1.0001
- HFIP (average ratio area of HFIP/area of toluene) [4, 16]: 0.04669
- Total Impurity (average sum of ratios area of each impurity/area of toluene) [4, 16]: 0.3627
- HFIP (average ratio area of HFIP/area of toluene) [4, 17]: 0.3787
- Total Impurity (average sum of ratios area of each impurity/area of toluene) [4, 17]: 0.9486
- HFIP (average ratio area of HFIP/area of toluene) [4, 18]: 0.04325
- Total Impurity (average sum of ratios area of each impurity/area of toluene) [4, 18]: 0.3644
- HFIP (average ratio area of HFIP/area of toluene) [4, 19]: 0.3329
- Total Impurity (average sum of ratios area of each impurity/area of toluene) [4, 19]: 1.0156
